The assay addresses hydroxycarboxylic acid receptor 2 (HCA2) (Bos taurus, UniProt G3N168). Kind of assay: Fura-2 calcium mobilization in native bovine neutrophils expressing HCA2. It is filed as cell-based.

hydroxycarboxylic acid receptor 2 (HCA2), sequence (G3N168 1-379): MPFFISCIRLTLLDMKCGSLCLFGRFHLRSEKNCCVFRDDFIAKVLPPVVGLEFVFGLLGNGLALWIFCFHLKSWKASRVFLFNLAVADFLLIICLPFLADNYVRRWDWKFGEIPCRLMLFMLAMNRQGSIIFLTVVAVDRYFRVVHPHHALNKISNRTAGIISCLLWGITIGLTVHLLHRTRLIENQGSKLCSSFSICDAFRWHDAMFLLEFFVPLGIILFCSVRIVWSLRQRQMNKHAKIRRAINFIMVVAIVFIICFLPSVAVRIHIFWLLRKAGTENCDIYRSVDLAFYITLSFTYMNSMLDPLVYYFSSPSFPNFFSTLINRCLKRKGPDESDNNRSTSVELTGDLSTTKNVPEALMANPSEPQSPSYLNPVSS

Broadly, the EC50 is the concentration needed to bring the measured effect to its halfway point. On to `CC(O)CC(=O)O` (stereo not drawn) [BHB, β-hydroxybutyrate], for which the EC50 amounted to 2650 µM.
The result for `O=C(O)c1n[nH]c2c1C[C@H]1C[C@@H]21` [MK-1903, (1aR,5aR)1a,3,5,5a-Tetrahydro-1H-2,3-diaza-cyclopropa[a]pentalene-4-carboxylic acid] reads 0.0338 µM.

These data come from paper PMC7385489, “β-hydroxybutyrate and hydroxycarboxylic acid receptor 2 agonists activate the AKT, ERK and AMPK pathways, which are involved in bovine neutrophil chemotaxis” (Scientific Reports, 2020).
